Holding throughout (format): cell-based
One test deals with drug-resistant bacteria. Description: Antibacterial activity test, overall result on the strain panel. Conditions: all experimental strains, up to 128 μg/mL. The text has this:
(§1) The minimal inhibitory concentration (MIC) of the compounds as determined by microbroth dilution method with gentamicin, cefazolin sodium and ceftriaxone sodium as positive control.
(§2) The experimental strains included methicillin-resistant Gram-positive bacteria: methicillin-resistant Staphylococcus aureus MRSA 18-222, 18-575; multiple drug-resistant Gram-negative bacteria: vancomycin-resistant enterococci VRE 18-80, 18-94, multidrug-resistant Pseudomonas aeruginosa MDR-PA 18-1774, 18-202, carbapenem-resistant Acinetobacter baumannii CR-AB 18-183, 18-560. All the experimental strains were donated by Huashan Hospital affiliated to Fudan University (Institute of Antibiotics, Fudan University) and used after routine identification.
(§3) Preparation of MHB medium: 20.0 g MHB medium was added to 1 L distilled water, boiled until completely dissolved, packed in conical bottles and sterilized at 121° C. for 15 min.
The experimental strain was cultured to the logarithmic growth phase: under aseptic condition, the experimental strain was inoculated into 100 mL MHB medium and incubated in a constant temperature and humidity incubator at 37° C. for 20-22 hours. […]

Test [1] relates to multidrug-resistant Pseudomonas aeruginosa MDR-PA 18-174. The test can be described thus: Antibacterial activity test, MIC by microbroth dilution. The following applies: for Minimum bacteriostatic concentration: MDR-PA 18-174, microbroth dilution, 37° C., 20-22 hours.
Text: as §1, §2, §3
(§4) The experimental strain was cultured to the logarithmic growth phase: under aseptic condition, the experimental strain was inoculated into 100 mL MHB medium and incubated in a constant temperature and humidity incubator at 37° C. for 20-22 hours.
(§5) Preparation of storage solution: weighing the sample to be tested, dissolving it with 1% DMSO solution, preparing a storage solution with a concentration of 2560 μg/mL; weighing a positive reference substance, dissolving it with aseptic distilled water, and configuring a storage solution with a concentration of 2560 μg/mL.
(§6) Preparation of bacterial suspension: under aseptic condition, the experimental strains cultured to logarithmic growth phase were adjusted to 0.5 MCF turbidity standard with MHB medium and diluted according to 1:10, and the bacterial suspension with concentration of 10^6 CFU/mL was prepared for standby.
(§7) Dilution of storage solution and inoculation of experimental strain: under aseptic condition, the storage solution was diluted to 256 μg/mL solution; taking a sterile 96-well plate, adding 200 μL MHB medium to the 12th well, and adding 100 μL MHB medium to each well; adding 100 μL of positive control solution to the first well, mixing well, and sucking 100 μL from it and discarding; adding 100 μL of the compound sample solution to the second well, mixing well, and then pipetting 100 μL to the third well; after mixing, pipetting 100 μL to the fourth well, and diluting to the 11th well in this way; finally, 100 μL was pipetted from the 11th well and discarded, the 12th hole was the growth control without drugs. The concentration of the positive reference substance is 128 μg/mL; the concentrations of the sample solution are 128, 64, […], 8, 4, 2, 1, 0.5, 0.25 μg/mL, respectively. Then, 100 μL of the prepared bacterial suspension is added to each well, so that the final concentration of the bacterial liquid in each well is 5×10^5 CFU/mL.
(§8) Incubation: covering the 96-well plate inoculated with the experimental strains, and incubating in a constant temperature and humidity box at 37° C. for 20-22 hours.
In FIGS. 1-6, the twelve wells represent twelve groups, from left to right, positive, 128 μg/mL, 64 μg/mL, 32 μg/mL, 16 μg/mL, 8 μg/mL, 4 μg/mL, 2 μg/mL, 1 μg/mL, […], Negative.
(In general: Dilution methods test growth across graded concentrations, often in twofold steps.)

Test [2] deals with carbapenem-resistant Acinetobacter baumannii CR-AB 18-560. The description is as above. The following applies: 37° C., 20-22 hours.
Text: as §1, §2, §3, §4, §5, §6, §7, §8

Test [3] relates to methicillin-resistant Staphylococcus aureus MRSA 18-222. Described as above. Conditions: 37° C., 20-22 hours.
Text: as §1, §2, §3, §4, §5, §6, §7, §8

Test [4] has as its system carbapenem-resistant Acinetobacter baumannii CR-AB 18-183. The description is as above. The following applies: 37° C., 20-22 hours.
Text: as §1, §2, §3, §4, §5, §6, §7, §8

In test [5] the test system is vancomycin-resistant enterococci VRE 18-94. The description is as above. The following applies: for Minimum bacteriostatic concentration: VRE 18-94, microbroth dilution, 37° C., 20-22 hours.
Text: as §1, §2, §3, §4, §5, §6, §7, §8

Test [6] relates to vancomycin-resistant enterococci VRE 18-80. The description is as above. Conditions: 37° C., 20-22 hours.
Text: as §1, §2, §3, §4, §5, §6, §7, §8

Test [7] relates to methicillin-resistant Staphylococcus aureus MRSA 18-575. The test is described as above. The following applies: 37° C., 20-22 hours.
Text: as §1, §2, §3, §4, §5, §6, §7, §8

The subject of test [8] is multidrug-resistant Pseudomonas aeruginosa MDR-PA 18-202. Described as above. Conditions: 37° C., 20-22 hours.
Text: as §1, §2, §3, §4, §5, §6, §7, §8

This is an account of results in patent publication US10882818B1, “P-bromoaniline cassic acid ester with antibacterial activity and a method of preparing the same” (ZHUHAI JINAN SELENIUM SOURCE NANOTECHNOLOGY CO., LTD., priority 2020, dated 2021).

Converted amounts (≈) assume the structure as drawn.

As for `O=C(O)c1cc(O)c2c(c1)C(=O)c1cccc(O)c1C2=O` [Cassic acid], the “inhibitory effect on drug-resistant bacteria” value with drug-resistant bacteria was “no inhibitory effect”. The Minimum bacteriostatic concentration in test [1], in test [2], in [3], in test [4], in [5] and in test [6] was over 128 µg/mL in each case. The Minimum bacteriostatic concentration in test [7] and in test [8] was over 128 µg/mL each time.

Consider `Cc1nnc(SCC2=C(C(=O)O)N3C(=O)[C@@H](NC(=O)Cn4cnnn4)[C@H]3SC2)s1` [Cefazolin sodium, cefazolin sodium], for which the Minimum bacteriostatic concentration in test [1] is 8 µg/mL; in test [2] it was over 128 µg/mL; in test [3], over 128 µg/mL; in test [4], over 128 µg/mL; in test [5], over 128 µg/mL; in test [6], 32 µg/mL. Also, the Minimum bacteriostatic concentration in test [7] was over 128 µg/mL; in test [8], 128 µg/mL.

On to `CO/N=C(\C(=O)N[C@@H]1C(=O)N2C(C(=O)O)=C(CSc3nc(=O)c(=O)[nH]n3C)CS[C@H]12)c1csc(N)n1` [Ceftriaxone sodium, ceftriaxone sodium], for which the Minimum bacteriostatic concentration in [1] is 128 µg/mL; in test [2] it was over 128 µg/mL; in test [3] it was over 128 µg/mL; in [4], over 128 µg/mL; in [5], over 128 µg/mL; in [6], 8 µg/mL. Moreover, the Minimum bacteriostatic concentration in [7] was over 128 µg/mL; in test [8], 16 µg/mL.

Consider `Nc1ccc(Br)cc1` [P-Bromoaniline, P-bromoaniline], for which the “inhibitory effect on drug-resistant bacteria” value with drug-resistant bacteria was “no inhibitory effect”. The Minimum bacteriostatic concentration in test [1], in [2], in test [3], in test [4], in [5] and in test [6] was over 128 µg/mL in each case. Besides, the Minimum bacteriostatic concentration in test [7] and in test [8] was over 128 µg/mL throughout.

Usually MIC stands for the smallest concentration in the dilution series that meets the test's criterion for growth inhibition. In the case of `O=C(Nc1ccc(Br)cc1)c1cc(O)c2c(c1)C(=O)c1cccc(O)c1C2=O` [p-Bromoaniline cassic acid ester, N-(4-bromophenyl)-4,5-dihydroxy-9,10-dioxo-9,10-dihydroanthracene-2-carboxamide], the Minimum bacteriostatic concentration in test [1] is 32 µg/mL; in test [2], over 128 µg/mL; in [3] it was over 128 µg/mL; in test [4], over 128 µg/mL; in [5], 128 µg/mL; in test [6], over 128 µg/mL. For the same compound, the Minimum bacteriostatic concentration in [7] and in test [8] was over 128 µg/mL each time. Besides, the MIC came out at 32 µg/mL (≈ 73 µM) in test [1] (multi-drug resistant Pseudomonas aeruginosa MDR-PA (strain number not given)) and 128 µg/mL (≈ 292 µM) in test [5] (Enterococcus, vancomycin-resistant enterococci VRE 18-94).

In the case of gentamicin, the Minimum bacteriostatic concentration in [1] is 0.0625 µg/mL; in test [2], over 128 µg/mL; in test [3], 128 µg/mL; in test [4], over 128 µg/mL; in test [5], over 128 µg/mL; in test [6] it was 0.0625 µg/mL. In addition, the Minimum bacteriostatic concentration in [7] was 2 µg/mL; in test [8] it was 0.0625 µg/mL.
